In patent publication US6525058B1, “Pharmaceutical composition for oral use” (Yamanouchi Pharmaceutical Co., LTD, priority 1999, dated 2003):
Counter-ions that a name gives are not always drawn.

Test: Stability of gantofiban citrate per se and when compounded with common fillers, binders and disintegrating agents
Assay type: physicochemical

- Stability in a preparation containing it (compounded with fillers, binders and disintegrating agents (lactose, D-mannitol, finely crystalline cellulose, corn starch etc.)): decomposed with a lapse of time
- Stability of the substance per se (gantofiban citrate alone): stable substance
Structure (SMILES): CCOC(=O)CN1CCN(C[C@@H]2CN(c3ccc(C(N)=NC(=O)OC)cc3)C(=O)O2)CC1 [gantofiban citrate, 1-ethyl methylester 4-[[(5R)-3-[p-(carboxyamidino)phenyl]-2-oxo-5-oxazolidinyl]methyl]-1-piperazineacetate]
